Laboratory results reported in patent US20210238173A1, “MITOGEN-ACTIVATED PROTEIN KINASE KINASE 7 INHIBITORS” (Yeda Research and Development Co. Ltd., priority 2018, published 2021).

Legend:
[1] = Metabolic stability in monkey liver microsomes; format: in vitro ADME
Excerpt: (§1) A reference compound, REF1250, was used in this study: […]

[2] = Metabolic stability in human liver microsomes; format: in vitro ADME
Excerpt: as §1

pJNK in 3T3 WT cells = assay: In-cell western (ICW) pJNK inhibition in 3T3 WT; format: cell-based
Protocol: (§2) HEK293, Beas2B and 3T3 cells were plated 24 hours before procedure on 384 well clear bottom black flat plates (Corning) pre-coated with Fibronectin (Sigma) diluted in PBS to a concentration of 5 μg/ml 45 minutes prior to cells introduction. Cells were plated using Multidrop™ Combi reagent dispenser (Thermo Fisher Scientific). Compound, reagents and antibody dispensing as well as washes were performed with a CyBio liquid handler (Analytik). Cells were pre-incubated with a small molecule or up to 1% DMSO for 2 h before fixation. HEK293, 3T3 or Beas2B cells were treated with 0.6M/0.2M/0.2M D-Sorbitol/PBS (Sigma) for 20/40/40 min. respectively, before fixation. Media was removed and wells were immediately fixed with 150 μl per well of 3.7% formaldehyde/PBS fixing solution for 20 min. Formaldehyde was then aspired and cells were permeabilized with 150 μl of 0.5% Triton x-100/PBS solution for 10 min. After aspiration cells were washed with ice-cold methanol and stored at −20° C., for 10 min. Methanol was aspired and cells were blocked with 150 μl blocking buffer (LICOR) for 90 min. Primary antibody Phospho-SAPK/JNK T183/Y185 (CST; 9251S) was diluted 1:1000 in blocking buffer and was applied 50 μl per well, except control wells to which only blocking buffer was applied, O.N. (16 h) at 4° C. with mild shaking. Primary antibody was aspired, wells were washed with 150 μl 0.1% Tween20/PBS (Sigma) washing solution three times for 7 min. IRDye® 800CW Goat anti-Rabbit IgG Secondary antibody (LICOR) was then diluted 1:1200 in blocking buffer with 50 μl applied per well on control wells only (no CellTag control), then CellTag700 (1:2000) was added to the solution and 50 μl were added to all experiment wells, for 1 h at room temperature. Wells were aspired and washed again with 150 μl 0.1% Tween20/PBS (Sigma) washing solution three times for 7 min. plate was dried and scanned with Odyssey CLx imaging system at 700 nm and 800 nm (Licor). Wells signals were analyzed with Odyssey software. The signal was normalized by the CellTag700 signal.
(§3) To rapidly assess the cellular activity (EC50) with full dose response curves of the MKK7 covalent inhibitors, according to some embodiments of the present invention, an in-cell western assay was adapted to a 384 well plate format over traditional western blot, and monitored phospho-JNK (pJNK) levels in response to osmotic shock. We first characterized the dynamics of pJNK in response to sorbitol. Sufficient dynamic range for pJNK is achieved at 20 minutes in HEK293 cells and at 40 minutes in 3T3 and Beas2B cells. The compound's activity was assessed by pre-treating cells with either compound or DMSO for 2 hours, followed by Sorbitol stimulation. The response of pJNK, and its substrates, pc-Jun and pATF2, was measured, as well as pP38, which is a substrate of MKK4 but not MKK7, and pERK in HEK293 cells, and the results are presented in Table 5 below.
Wildtype 3T3 cells, 3T3 MKK7 double knock-out (MKK7^−/−) cells and MKK4/7 double knockouts (MKK4/7^−/−) were used to validate on target activity of the MKK7 covalent inhibitors presented herein.

primary mouse B-cells = assay: Primary B-cell activation (CD86+ FACS) in response to LPS; format: cell-based; settings: for IC50: full dose response
Excerpt: Compounds Block Activation of Primary Mouse B-Cells:
JNK is known to mediate activation of B-cells in response to lypopolysacharide (LPS) through the TLR4 signaling pathway as well as in response to B-cell receptor activation (stimulated e.g. with an anti-IgM antibody). Primary B-cells were isolated from the spleen of mice and assessed for their B-cell activation, via FACS analysis of CD86+ expression, in response to LPS in the presence or absence of the covalent MKK7 enzyme inhibitors presented herein, as well as a positive control JNK inhibitor, JNK-IN-8.
At 10 μM and 2 hours pre-incubation before stimulation, GO80 was able to inhibit 60% of the CD86+ response.

[3] = Metabolic stability in rat liver microsomes; format: in vitro ADME
Excerpt: as §1

[4] = Metabolic stability in dog liver microsomes; format: in vitro ADME
Excerpt: as §1

[5] = Metabolic stability in mouse liver microsomes; format: in vitro ADME
Excerpt: as §1

JNK activation = assay: KTR reporter live cell imaging of JNK activation; format: cell-based; settings: Homo sapiens; HEK293 cells; read-out: EC50 of test and control compounds
Excerpt: As an orthogonal assay for the ICW we used a KTR reporter cell line for JNK activation via live cell imaging.

pJNK in HEK293 cells = assay: In-cell western (ICW) pJNK inhibition in HEK293; format: cell-based; settings: Homo sapiens, HEK293, HEK293, ICW, 2 h pre-incubation, sorbitol stimulation
Protocol: as §2, §3

[6] = target: T1, MKK7 in MDA-MB-231 lysate (Homo sapiens, UniProt O14733); assay: Proteomic selectivity labeling in human cell lysate (MDA-MB-231); format: binding
T1 construct: endogenous in cells; host or cells: MDA-MB-231
T1 sequence (O14733 1-419): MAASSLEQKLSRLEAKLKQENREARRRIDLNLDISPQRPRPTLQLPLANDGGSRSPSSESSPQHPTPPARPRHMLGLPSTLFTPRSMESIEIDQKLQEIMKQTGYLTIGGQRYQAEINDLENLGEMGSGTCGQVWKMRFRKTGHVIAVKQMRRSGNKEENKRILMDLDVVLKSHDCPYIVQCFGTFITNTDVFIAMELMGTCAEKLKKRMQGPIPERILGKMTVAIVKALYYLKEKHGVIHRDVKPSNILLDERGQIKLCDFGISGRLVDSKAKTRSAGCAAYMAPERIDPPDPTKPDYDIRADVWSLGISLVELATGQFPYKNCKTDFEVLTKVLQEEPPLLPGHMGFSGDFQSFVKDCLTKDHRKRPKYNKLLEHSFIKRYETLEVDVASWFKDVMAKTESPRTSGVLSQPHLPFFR

C=CC(=O)Nc1cc(C(=O)NC)cc(-c2n[nH]c3ccccc23)c1 [PCM487]
% remaining @ 40 min [1]: 41%
Halflife [1]: 33 min
% remaining @ 40 min [2]: 38%
Halflife [2]: 27 min
EC50 (pJNK in 3T3 WT cells; 3T3 WT, ICW, 2 h pre-incubation, sorbitol stimulation, listed as PCM87): 4.06 µM
inhibition of the CD86+ response (primary mouse B-cells; 10 μM, 2 hours pre-incubation): ~90%
IC50 (primary mouse B-cells): 4.9 µM
% remaining @ 40 min [3]: 72%
Halflife [3]: >40 min
% remaining @ 40 min [4]: 71%
Halflife [4]: >40 min
% remaining @ 40 min [5]: 3%
Halflife [5]: 8 min

CCC(=O)Nc1cccc(-c2[nH]nc3ccccc23)c1 [PCM520]
EC50 (JNK activation): > 10 µM

C=CC(=O)Nc1cccc(-c2nn(C)c3ccccc23)c1 [PCM521]
EC50 (JNK activation): > 10 µM

C=CC(=O)N[C@@H]1CCCN(c2[nH]nc3ccccc23)C1 [PCM532]
EC50 (pJNK in HEK293 cells): > 10 µM
activity in ICW in 3T3 cells (pJNK in 3T3 WT cells; 3T3 cells): inactive

C#CCNC(=O)c1cc(NC(=O)C=C)cc(-c2n[nH]c3ccccc23)c1 [PCM548]
inhibition at 10 µM (primary mouse B-cells; Mus musculus, B-cell, 10 μM, 2 hours pre-incubation): ~90%
IC50 (primary mouse B-cells; Mus musculus, B-cell): 5.3 µM
proteins labeled ([6]; at 2 μM): the only target
proteins labeled ([6]; at 5 μM): MKK7 seems to be the dominant target
proteins labeled ([6]; at 10 μM): labels many proteins
